Legend:
SNU-5 [1] = experiment: Antiproliferative activity against human SNU5 cells after 72 hrs by CCK8 assay; format: functional, cell-based; settings: SNU-5, 72 h
MKN-45 [2] = experiment: Antiproliferative activity against human MKN45 cells after 72 hrs by sulforhodamine B assay; format: functional, cell-based; settings: MKN-45, 72 h
MKN-74 [3] = experiment: Antiproliferative activity against human MKN74 cells after 72 hrs by sulforhodamine B assay; format: functional, cell-based; settings: MKN-74, 72 h
SGC-7901 [4] = experiment: Antiproliferative activity against human SGC7901 cells after 72 hrs by sulforhodamine B assay; format: functional, cell-based; settings: SGC-7901, 72 h
BGC-823 = experiment: Antiproliferative activity against human BGC823 cells after 72 hrs by sulforhodamine B assay; format: functional, cell-based; settings: BGC-823, 72 h
Aurora kinase A = target: T1, Aurora kinase A (Homo sapiens, UniProt O14965); experiment: Inhibition of Aurora A (unknown origin) using STK S2 as substrate after 40 mins by HTRF assay
T1 sequence (O14965 whole entry): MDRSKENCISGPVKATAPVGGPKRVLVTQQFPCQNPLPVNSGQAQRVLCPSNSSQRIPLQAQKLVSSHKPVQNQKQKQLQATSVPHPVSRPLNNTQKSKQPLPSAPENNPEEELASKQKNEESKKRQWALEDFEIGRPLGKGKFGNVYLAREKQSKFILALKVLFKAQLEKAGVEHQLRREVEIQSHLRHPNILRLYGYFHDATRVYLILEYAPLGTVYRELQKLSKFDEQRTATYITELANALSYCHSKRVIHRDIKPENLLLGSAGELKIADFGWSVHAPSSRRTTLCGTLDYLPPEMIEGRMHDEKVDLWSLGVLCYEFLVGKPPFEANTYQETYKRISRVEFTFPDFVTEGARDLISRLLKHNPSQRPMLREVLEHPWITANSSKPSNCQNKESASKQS

Aurora kinase B = Aurora kinase B (Homo sapiens, UniProt Q96GD4); experiment: Inhibition of Aurora B (unknown origin) using STK S2 as substrate after 30 mins by HTRF assay
[5] = target: Vascular endothelial growth factor receptor 2 (Homo sapiens, UniProt P35968); experiment: biochemical; format: cell-based, Sf21
Description: Inhibition of recombinant human N-terminal His6-tagged KDR (790 to end residues) expressed in baculovirus infected Sf21 insect cells after 60 mins by ELISA

[6] = target: Vascular endothelial growth factor receptor 1 (Homo sapiens) (UniProt P17948); experiment: Inhibition of recombinant human VEGFR1 at 1000 nM after 60 mins by ELISA relative to control
[7] = target: Vascular endothelial growth factor receptor 1 (Homo sapiens) (UniProt P17948); experiment: Inhibition of recombinant human VEGFR1 at 100 nM after 60 mins by ELISA relative to control
[8] = target: Platelet-derived growth factor receptor beta (Homo sapiens) (UniProt P09619); experiment: Inhibition of recombinant human PDGFRbeta at 1000 nM after 60 mins by ELISA relative to control
[9] = target: Proto-oncogene tyrosine-protein kinase receptor Ret (Homo sapiens) (UniProt P07949); experiment: Inhibition of recombinant human RET at 1000 nM after 60 mins by ELISA relative to control
[10] = target: Platelet-derived growth factor receptor beta (Homo sapiens) (UniProt P09619); experiment: Inhibition of recombinant human PDGFRbeta at 100 nM after 60 mins by ELISA relative to control
[11] = target: Proto-oncogene tyrosine-protein kinase receptor Ret (Homo sapiens) (UniProt P07949); experiment: Inhibition of recombinant human RET at 100 nM after 60 mins by ELISA relative to control
[12] = target: Epidermal growth factor receptor (Homo sapiens) (UniProt P00533); experiment: Inhibition of recombinant human EGFR at 100 nM after 60 mins by ELISA relative to control
[13] = target: Receptor tyrosine-protein kinase erbB-2 (Homo sapiens) (UniProt P04626); experiment: Inhibition of recombinant human Erbb2 at 1000 nM after 60 mins by ELISA relative to control
[14] = target: Receptor tyrosine-protein kinase erbB-2 (Homo sapiens) (UniProt P04626); experiment: Inhibition of recombinant human Erbb2 at 100 nM after 60 mins by ELISA relative to control
[15] = target: Receptor tyrosine-protein kinase erbB-4 (Homo sapiens) (UniProt Q15303); experiment: Inhibition of recombinant human Erbb4 at 1000 nM after 60 mins by ELISA relative to control
[16] = target: Receptor tyrosine-protein kinase erbB-4 (Homo sapiens) (UniProt Q15303); experiment: Inhibition of recombinant human Erbb4 at 100 nM after 60 mins by ELISA relative to control
[17] = target: Proto-oncogene tyrosine-protein kinase Src (Homo sapiens) (UniProt P12931); experiment: Inhibition of recombinant human c-SRC at 100 nM after 60 mins by ELISA relative to control
[18] = target: Tyrosine-protein kinase ABL1 (Homo sapiens) (UniProt P00519); experiment: Inhibition of recombinant human ABL at 100 nM after 60 mins by ELISA relative to control
[19] = target: Insulin-like growth factor 1 receptor (Homo sapiens) (UniProt P08069); experiment: Inhibition of recombinant human IGF1R at 1000 nM after 60 mins by ELISA relative to control
[20] = target: Ephrin type-A receptor 2 (Homo sapiens) (UniProt P29317); experiment: Inhibition of recombinant human EPHA2 at 100 nM after 60 mins by ELISA relative to control
[21] = target: Insulin-like growth factor 1 receptor (Homo sapiens) (UniProt P08069); experiment: Inhibition of recombinant human IGF1R at 100 nM after 60 mins by ELISA relative to control
MKN-74 [22] = experiment: Cell cycle arrest in human MKN74 cells assessed as accumulation at G2/M phase after 24 hrs by propidium iodide staining based flow cytometry; format: functional
MKN-45 [23] = experiment: Cell cycle arrest in human MKN45 cells assessed as accumulation at G2/M phase after 24 hrs by propidium iodide staining based flow cytometry; format: functional
SGC-7901 [24] = experiment: Cell cycle arrest in human SGC7901 cells assessed as accumulation at G2/M phase after 24 hrs by propidium iodide staining based flow cytometry; format: functional
SNU-5 [25] = experiment: Cell cycle arrest in human SNU5 cells assessed as accumulation at G2/M phase after 24 hrs by propidium iodide staining based flow cytometry; format: functional
Mus musculus [26] = experiment: AUC (0 to t) in ICR mouse at 5 mg/kg, iv administered as single dose by LC-MS analysis; format: ADME, organism-based; settings: in vivo
[27] = Clearance in ICR mouse at 5 mg/kg, iv administered as single dose by LC-MS analysis; format: ADME, organism-based; settings: in vivo
[28] = MRT in ICR mouse at 5 mg/kg, iv administered as single dose by LC-MS analysis; format: ADME, organism-based; settings: in vivo
[29] = Volume of distribution at steady state in ICR mouse at 5 mg/kg, iv administered as single dose by LC-MS analysis; format: ADME, organism-based; settings: in vivo, read-out: Vdss
[30] = Terminal elimination half life in ICR mouse at 5 mg/kg, iv administered as single dose by LC-MS analysis; format: ADME, organism-based; settings: in vivo, read-out: beta t1/2 (converted)
Mus musculus [31] = experiment: AUC (0 to t) in ICR mouse at 25 mg/kg, po administered as single dose by LC-MS analysis; format: ADME, organism-based; settings: in vivo
[32] = Cmax in ICR mouse at 25 mg/kg, po administered as single dose by LC-MS analysis; format: ADME, organism-based; parameters: dose 25 mg/kg, route oral; settings: in vivo
[33] = Tmax in ICR mouse at 25 mg/kg, po administered as single dose by LC-MS analysis; format: ADME, organism-based; settings: in vivo
[34] = Terminal elimination half life in ICR mouse at 25 mg/kg, po administered as single dose by LC-MS analysis; format: ADME, organism-based; settings: in vivo, read-out: beta t1/2 (converted)
[35] = Oral bioavailability in ICR mouse at 25 mg/kg administered as single dose by LC-MS analysis; format: ADME, organism-based; settings: in vivo
SNU-5 [36] = experiment: Antitumor activity against human SNU5 cells xenografted in nude mouse assessed as delay in tumor growth at 20 mg/kg, po qd for 21 days relative to control; format: functional
Mus musculus [37] = experiment: Toxicity in nude mouse xenografted with human SNU5 cells assessed as mortality at 20 mg/kg, po qd for 21 days; format: organism-based; settings: in vivo, 504 h
Mus musculus [38] = experiment: Toxicity in nude mouse xenografted with human SNU5 cells assessed as body weight at 20 mg/kg, po qd for 21 days (reference value: 19.6 g); format: organism-based; settings: in vivo, 504 h
[39] = target: Epidermal growth factor receptor (Homo sapiens) (UniProt P00533); settings: at 1000 nM
Description: Inhibition of recombinant human EGFR at 1000 nM after 60 mins by ELISA relative to control

[40] = target: Proto-oncogene tyrosine-protein kinase Src (Homo sapiens) (UniProt P12931); settings: at 1000 nM
Description: Inhibition of recombinant human c-SRC at 1000 nM after 60 mins by ELISA relative to control

[41] = target: Tyrosine-protein kinase ABL1 (Homo sapiens) (UniProt P00519); settings: at 1000 nM
Description: Inhibition of recombinant human ABL at 1000 nM after 60 mins by ELISA relative to control

Sequence of Aurora kinase B (Q96GD4 whole entry): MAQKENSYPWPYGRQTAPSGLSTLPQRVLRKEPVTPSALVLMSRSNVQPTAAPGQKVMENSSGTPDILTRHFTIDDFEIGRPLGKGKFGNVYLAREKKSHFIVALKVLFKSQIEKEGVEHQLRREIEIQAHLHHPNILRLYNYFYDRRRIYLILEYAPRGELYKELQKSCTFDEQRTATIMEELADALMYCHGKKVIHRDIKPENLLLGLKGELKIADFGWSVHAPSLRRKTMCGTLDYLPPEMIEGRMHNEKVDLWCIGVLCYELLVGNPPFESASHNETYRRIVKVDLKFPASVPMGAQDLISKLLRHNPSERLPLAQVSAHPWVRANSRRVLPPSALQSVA
Sequence of Receptor tyrosine-protein kinase erbB-2 (Homo sapiens) (P04626 whole entry): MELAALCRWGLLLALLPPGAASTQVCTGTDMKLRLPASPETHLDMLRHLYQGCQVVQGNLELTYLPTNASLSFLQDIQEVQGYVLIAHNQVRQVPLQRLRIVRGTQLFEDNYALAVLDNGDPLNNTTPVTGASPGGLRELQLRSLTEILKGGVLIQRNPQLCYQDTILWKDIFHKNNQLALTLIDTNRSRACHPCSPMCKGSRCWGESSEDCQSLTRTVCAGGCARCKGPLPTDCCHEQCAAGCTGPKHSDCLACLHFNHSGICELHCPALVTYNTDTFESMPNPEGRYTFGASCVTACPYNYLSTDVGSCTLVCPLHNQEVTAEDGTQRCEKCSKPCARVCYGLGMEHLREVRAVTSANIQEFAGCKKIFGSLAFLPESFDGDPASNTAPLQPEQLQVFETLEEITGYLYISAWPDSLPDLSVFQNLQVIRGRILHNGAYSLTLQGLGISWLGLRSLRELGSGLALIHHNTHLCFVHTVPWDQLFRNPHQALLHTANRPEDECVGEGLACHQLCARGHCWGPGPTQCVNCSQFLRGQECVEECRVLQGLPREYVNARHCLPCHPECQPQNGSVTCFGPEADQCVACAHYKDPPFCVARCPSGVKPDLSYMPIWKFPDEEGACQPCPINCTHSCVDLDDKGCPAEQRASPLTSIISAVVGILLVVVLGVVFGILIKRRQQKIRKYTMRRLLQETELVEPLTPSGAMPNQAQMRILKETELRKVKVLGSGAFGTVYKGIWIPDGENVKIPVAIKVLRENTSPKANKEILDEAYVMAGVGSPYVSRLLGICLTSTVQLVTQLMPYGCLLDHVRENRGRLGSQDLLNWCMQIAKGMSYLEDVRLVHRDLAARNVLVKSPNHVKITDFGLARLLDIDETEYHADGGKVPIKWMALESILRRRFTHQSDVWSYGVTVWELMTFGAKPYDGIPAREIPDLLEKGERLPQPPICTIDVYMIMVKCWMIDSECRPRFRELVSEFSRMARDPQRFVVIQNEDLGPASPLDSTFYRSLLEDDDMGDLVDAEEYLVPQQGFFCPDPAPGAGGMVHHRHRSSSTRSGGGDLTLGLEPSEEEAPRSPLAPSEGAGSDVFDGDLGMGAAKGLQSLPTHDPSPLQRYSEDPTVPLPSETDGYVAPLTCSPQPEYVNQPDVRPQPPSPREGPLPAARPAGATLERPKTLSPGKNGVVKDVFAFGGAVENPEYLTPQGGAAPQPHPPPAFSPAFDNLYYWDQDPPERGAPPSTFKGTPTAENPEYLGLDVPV
Sequence of Vascular endothelial growth factor receptor 2 (P35968 whole entry): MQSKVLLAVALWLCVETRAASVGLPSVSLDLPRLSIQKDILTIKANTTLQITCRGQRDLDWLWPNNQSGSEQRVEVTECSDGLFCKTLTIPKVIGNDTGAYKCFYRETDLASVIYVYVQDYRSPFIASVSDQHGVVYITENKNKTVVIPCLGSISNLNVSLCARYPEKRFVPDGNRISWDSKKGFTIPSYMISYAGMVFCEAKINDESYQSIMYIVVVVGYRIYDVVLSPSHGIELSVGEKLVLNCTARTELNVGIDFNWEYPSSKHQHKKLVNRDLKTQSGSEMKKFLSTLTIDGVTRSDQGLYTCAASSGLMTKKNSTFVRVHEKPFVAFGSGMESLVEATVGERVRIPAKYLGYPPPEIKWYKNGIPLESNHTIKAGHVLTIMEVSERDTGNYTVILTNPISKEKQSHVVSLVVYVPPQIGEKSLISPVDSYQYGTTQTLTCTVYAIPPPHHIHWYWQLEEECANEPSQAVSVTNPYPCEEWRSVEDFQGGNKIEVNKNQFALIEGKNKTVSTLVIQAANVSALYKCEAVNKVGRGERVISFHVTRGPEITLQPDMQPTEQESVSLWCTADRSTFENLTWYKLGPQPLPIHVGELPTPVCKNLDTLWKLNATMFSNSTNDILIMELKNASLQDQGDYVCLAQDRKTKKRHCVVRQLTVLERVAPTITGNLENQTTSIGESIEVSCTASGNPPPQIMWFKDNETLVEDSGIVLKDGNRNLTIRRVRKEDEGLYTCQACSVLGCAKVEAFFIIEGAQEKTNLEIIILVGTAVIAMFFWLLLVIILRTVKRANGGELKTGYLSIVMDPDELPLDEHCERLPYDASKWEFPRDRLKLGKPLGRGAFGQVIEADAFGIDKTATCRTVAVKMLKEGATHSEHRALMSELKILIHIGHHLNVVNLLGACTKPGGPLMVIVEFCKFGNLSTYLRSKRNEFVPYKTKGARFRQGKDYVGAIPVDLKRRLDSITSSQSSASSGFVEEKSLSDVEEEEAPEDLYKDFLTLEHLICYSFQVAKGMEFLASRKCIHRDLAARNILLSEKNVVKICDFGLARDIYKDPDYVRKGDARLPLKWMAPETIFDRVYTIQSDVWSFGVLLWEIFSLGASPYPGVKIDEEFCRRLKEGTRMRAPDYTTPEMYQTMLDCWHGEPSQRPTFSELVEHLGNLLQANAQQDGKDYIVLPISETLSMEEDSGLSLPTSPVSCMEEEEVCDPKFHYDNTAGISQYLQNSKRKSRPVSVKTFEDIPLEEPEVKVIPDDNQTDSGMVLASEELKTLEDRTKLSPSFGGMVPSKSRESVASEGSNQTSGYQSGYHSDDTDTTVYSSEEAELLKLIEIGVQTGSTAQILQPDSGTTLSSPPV
Sequence of Platelet-derived growth factor receptor beta (Homo sapiens) (P09619 whole entry): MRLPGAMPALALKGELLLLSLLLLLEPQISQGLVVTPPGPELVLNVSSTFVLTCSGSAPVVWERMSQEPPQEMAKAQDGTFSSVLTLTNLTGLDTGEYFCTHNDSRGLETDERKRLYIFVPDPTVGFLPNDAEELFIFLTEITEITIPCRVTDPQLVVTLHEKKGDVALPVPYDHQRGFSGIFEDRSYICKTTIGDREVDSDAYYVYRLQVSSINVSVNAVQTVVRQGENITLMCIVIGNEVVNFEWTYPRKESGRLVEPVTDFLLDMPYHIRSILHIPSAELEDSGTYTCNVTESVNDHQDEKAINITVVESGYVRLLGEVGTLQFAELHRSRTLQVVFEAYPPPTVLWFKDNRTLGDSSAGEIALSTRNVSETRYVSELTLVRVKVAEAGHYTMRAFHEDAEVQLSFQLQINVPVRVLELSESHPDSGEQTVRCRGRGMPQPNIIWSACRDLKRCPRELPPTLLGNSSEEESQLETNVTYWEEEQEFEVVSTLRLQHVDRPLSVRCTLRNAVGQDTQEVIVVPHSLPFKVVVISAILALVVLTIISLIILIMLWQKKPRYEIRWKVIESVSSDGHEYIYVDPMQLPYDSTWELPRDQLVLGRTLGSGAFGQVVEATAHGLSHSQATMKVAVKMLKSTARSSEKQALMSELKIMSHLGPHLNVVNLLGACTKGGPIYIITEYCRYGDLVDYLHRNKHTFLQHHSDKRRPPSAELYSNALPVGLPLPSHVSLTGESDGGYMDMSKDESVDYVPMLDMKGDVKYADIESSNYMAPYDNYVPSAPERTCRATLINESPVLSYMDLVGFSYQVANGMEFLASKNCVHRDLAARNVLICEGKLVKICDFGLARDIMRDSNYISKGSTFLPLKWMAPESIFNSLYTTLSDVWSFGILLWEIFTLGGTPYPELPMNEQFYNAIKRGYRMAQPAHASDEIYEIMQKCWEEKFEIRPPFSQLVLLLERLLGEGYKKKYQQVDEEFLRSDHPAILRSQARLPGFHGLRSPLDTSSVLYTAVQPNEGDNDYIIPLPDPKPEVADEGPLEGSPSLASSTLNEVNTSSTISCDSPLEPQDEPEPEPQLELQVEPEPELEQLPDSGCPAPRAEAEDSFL
Sequence of Proto-oncogene tyrosine-protein kinase Src (Homo sapiens) (P12931 2-536 limits assumed): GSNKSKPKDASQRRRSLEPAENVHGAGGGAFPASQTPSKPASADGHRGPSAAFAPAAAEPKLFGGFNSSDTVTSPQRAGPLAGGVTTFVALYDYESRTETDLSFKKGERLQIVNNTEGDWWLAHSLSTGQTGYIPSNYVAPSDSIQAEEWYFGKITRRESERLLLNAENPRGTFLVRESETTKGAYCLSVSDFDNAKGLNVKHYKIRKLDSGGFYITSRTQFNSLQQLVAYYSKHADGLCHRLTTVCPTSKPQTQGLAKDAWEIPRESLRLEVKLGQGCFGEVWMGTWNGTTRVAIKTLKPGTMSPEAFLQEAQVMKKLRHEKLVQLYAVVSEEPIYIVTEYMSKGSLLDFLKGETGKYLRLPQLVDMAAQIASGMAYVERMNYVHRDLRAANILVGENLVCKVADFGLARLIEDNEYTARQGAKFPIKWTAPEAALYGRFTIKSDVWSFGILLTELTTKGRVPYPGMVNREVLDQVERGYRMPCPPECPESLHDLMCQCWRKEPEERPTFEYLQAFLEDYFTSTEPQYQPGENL

## COc1cccc2c1C(=O)c1c(O)c3c(c(O)c1C2=O)C[C@@](O)(C(=O)CO)C[C@@H]3O[C@H]1C[C@H](N)[C@H](O)[C@H](C)O1 [DOXORUBICIN]
SNU-5 [1]
  IC50: 237 nM
MKN-45 [2]
  IC50: 127 nM
MKN-74 [3]
  IC50: 204 nM
SGC-7901 [4]
  IC50: 130 nM
BGC-823
  IC50: 405 nM

## Cc1ccc(C2=Nc3c(n[nH]c3C)Nc3nc(N4CCOCC4)ncc32)cc1
Aurora kinase A
  IC50: 46.2 nM
Aurora kinase B
  IC50: 37.6 nM
[5]
  IC50: 21.6 nM
[6]
  inhibition: 28.1%
[7]
  inhibition: 0%
[8]
  inhibition: 41%
[9]
  inhibition: 68.7%
[10]
  inhibition: 13.2%
[11]
  inhibition: 28.7%
[12]
  inhibition: 24.5%
[13]
  inhibition: 0%
[14]
  inhibition: 3%
[15]
  inhibition: 17.5%
[16]
  inhibition: 12%
[17]
  inhibition: 0%
[18]
  inhibition: 0%
[19]
  inhibition: 26.8%
[20]
  inhibition: 3.9%
[21]
  inhibition: 1.4%
SNU-5 [1]
  IC50: 1270 nM
MKN-45 [2]
  IC50: 1260 nM
MKN-74 [3]
  IC50: 3140 nM
SGC-7901 [4]
  IC50: > 10000 nM
BGC-823
  IC50: > 10000 nM
MKN-74 [22]
  Activity: Dose-dependent effect
MKN-45 [23]
  Activity: Dose-dependent effect
SGC-7901 [24]
  Activity: Dose-dependent effect
SNU-5 [25]
  Activity: Dose-dependent effect
Mus musculus [26]
  AUCt: 4724 ng·mL·h
[27]
  clearance: 17.3 mL/min/kg
[28]
  MRT: 1.93 h
[29]
  Vd: 2.01 L/kg
[30]
  half-life: 91.8 min
Mus musculus [31]
  AUCt: 15335 ng·mL·h
[32]
  Cmax: 2780 ng/mL
[33]
  Tmax: 30 min
[34]
  half-life: 196 min
[35]
  bioavailability: 63.8%
SNU-5 [36]
  T/C: 61.63%
Mus musculus [37]
  Activity: Non-Toxic
Mus musculus [38]
  Activity: 18.4 g
[39]
  inhibition: 37.4%
[40]
  inhibition: 32%
[41]
  inhibition: 0%

## COc1ccc(C2=Nc3c(n[nH]c3C)Nc3nc(SC)ncc32)cc1
Aurora kinase A
  IC50: 93 nM
Aurora kinase B
  IC50: 2680 nM
[5]
  IC50: 430 nM

## CSc1ncc2c(n1)Nc1n[nH]c(C)c1N=C2c1cccc(F)c1
Aurora kinase A
  IC50: 167 nM
Aurora kinase B
  IC50: 611 nM
[5]
  IC50: 330 nM

## CN(C)C/C=C/C(=O)Nc1cc2c(Nc3ccc(F)c(Cl)c3)ncnc2cc1O[C@H]1CCOC1
[13]
  inhibition: 97.6%

## COc1ccccc1C1=Nc2c(n[nH]c2C)Nc2nc(SC)ncc21
Aurora kinase A
  IC50: 191 nM
Aurora kinase B
  IC50: 2320 nM
[5]
  IC50: 102 nM

## Cc1ccc(C2=Nc3c(n[nH]c3C)Nc3nc(NC(C)(C)C)ncc32)cc1
Aurora kinase A
  IC50: 357 nM
Aurora kinase B
  IC50: 1180 nM
[5]
  IC50: 84.5 nM

## CCN(CC)CCNC(=O)c1c(C)[nH]c(/C=C2\C(=O)Nc3ccc(F)cc32)c1C
[8]
  inhibition: 75.7%
[9]
  inhibition: 76.7%

## CSc1ncc2c(n1)Nc1n[nH]c(C)c1N=C2c1cccc(Cl)c1
Aurora kinase A
  IC50: 102 nM
Aurora kinase B
  IC50: 1000 nM
[5]
  IC50: 141 nM

## CSc1ncc2c(n1)Nc1n[nH]c(C)c1N=C2c1ccccc1
Aurora kinase A
  IC50: 193 nM
Aurora kinase B
  IC50: 894 nM
[5]
  IC50: 697 nM

## CSc1ncc2c(n1)Nc1n[nH]c(C)c1N=C2c1ccc(Cl)cc1
Aurora kinase A
  IC50: 183 nM
Aurora kinase B
  IC50: 1620 nM
[5]
  IC50: 318 nM

Reference: ChEMBL document CHEMBL4265936, “Pyrazolo[4,3-b]pyrimido[4,5-e][1,4]diazepine derivatives as new multi-targeted inhibitors of Aurora A/B and KDR” (Eur J Med Chem, 2018)
